Experimental data from ChEMBL document CHEMBL3046132, “Design and synthesis of thienopyridines as novel templates for acetylcholinesterase inhibitors” (2013).

Test system: Rattus norvegicus
Experiment: In vivo inhibition of AchE in Wistar albino Rattus norvegicus (rat) brain at 10 mg/kg, po after 30 min relative to untreated control
Type: functional
Conditions: 0.5 h

Cc1sc2nc3c(c(NCCCNc4c5c(nc6sc(C)c(C)c46)CCCC5)c2c1C)CCCC3
inhibition in vivo at 10 mg/kg: 25.1%

Cc1sc2nc3c(c(NCCCCNc4c5c(nc6sc(C)c(C)c46)CCCC5)c2c1C)CCCC3
inhibition in vivo at 10 mg/kg: 41.5%

C(CCNc1c2c(nc3sc4c(c13)CCCC4)CCCC2)CNc1c2c(nc3sc4c(c13)CCCC4)CCCC2
inhibition in vivo at 10 mg/kg: 35.7%

Cc1sc2nc3c(c(NCCCN4C(=O)c5ccccc5C4=O)c2c1C)CCCC3
inhibition in vivo at 10 mg/kg: 46.2%

Cc1sc2nc3c(c(NCCCCN4C(=O)c5ccccc5C4=O)c2c1C)CCCC3
inhibition in vivo at 10 mg/kg: 55.6%

O=C1c2ccccc2C(=O)N1CCCNc1c2c(nc3sc4c(c13)CCCC4)CCCC2
inhibition in vivo at 10 mg/kg: 42.7%

O=C1c2ccccc2C(=O)N1CCCCNc1c2c(nc3sc4c(c13)CCCC4)CCCC2
inhibition in vivo at 10 mg/kg: 29.8%

O=C1c2ccccc2C(=O)N1CCNCCCNc1c2c(nc3sc4c(c13)CCCC4)CCCC2
inhibition in vivo at 10 mg/kg: 43.9%

O=C1c2ccccc2C(=O)N1CCNCCCCNc1c2c(nc3sc4c(c13)CCCC4)CCCC2
inhibition in vivo at 10 mg/kg: 45%

Cc1sc2nc3c(c(NCCCCNC(=O)CCCCC4CCSS4)c2c1C)CCCC3 (stereo not drawn)
inhibition in vivo at 10 mg/kg: 42.9%

O=C(CCCCC1CCSS1)NCCCNc1c2c(nc3sc4c(c13)CCCC4)CCCC2 (stereo not drawn)
inhibition in vivo at 10 mg/kg: 56.7%

O=C(CCCCC1CCSS1)NCCCCNc1c2c(nc3sc4c(c13)CCCC4)CCCC2 (stereo not drawn)
inhibition in vivo at 10 mg/kg: 21.4%

Nc1c2c(nc3ccccc13)CCCC2 [TACRINE]
inhibition in vivo at 10 mg/kg: 54.9%
